Results: PubChem BioAssay AID2060341 (Molecular Pharmacology Branch, DTP, NCI, 2025)
“And” between values parts separate entries of the source, which are not always exact repeats. Identical values can stand only once.

Test system: 327498-153-R-J2-PDC multicell spheroid viability
Assay: Anticancer human tumor 327498-153-R-J2-PDC patient-derived uterine carcinosarcoma cell line growth inhibition [IpAb]
Conditions: for viability, T/C: stronger effect = lower value; active = viability on the fitted dose curve at most 10% of control; inactive = the rest
From the text: Combinatorial screen of targeted agents with ipatasertib and abemaciclib in multi-cell type tumor spheroids
A high-throughput screen of multi-cell type tumor spheroids was designed to identify active combinations of targeted small molecules and ipatasertib or abemaciclib. Complex spheroids include a stromal component modeled by human endothelial cells (HUVEC) and fibroblasts modeled by human mesenchymal stem cells (MSCs). The concentration ranges selected for each drug and investigational agent were based upon clinically achievable concentrations if the clinical Cmax of the agent was known.
Compounds. The drugs and investigational agents: ipatasertib (NSC767898), abemaciclib(NSC768073), selumetinib (NSC741078), trametinib (758246), adavosertib (NSC754352), everolimus (NSC733504), sapanisertib (NSC764658), vemurafenib (NSC761431), venetoclax (NSC766270), copanlisib (NSC809693), apelisib (NSC765974), palbociblib (NSC758247), vemurafenib (NSC761431), dabrafenib (NSC764134), ravoxertinib (NSC781343), BMS-387032 (NSC767048), sotorasib (NSC818433), talazoparib (NSC767125) and afursertib (NSC778305), were obtained from the National Cancer Institute (NCI) Developmental Therapeutics Program Chemical Repository. The FDA-approved anticancer drug set is available from the NCI Developmental Therapeutics Program. […] The stock solutions were prepared in dimethyl sulfoxide (DMSO, Sigma-Aldrich, St. Louis, MO, cat. D2650) at 800-fold the tested concentration and stored at -70 degrees C prior to their use. All drugs and investigational agents were tested over a range starting from a high concentration at or near the clinical Cmax and decreasing in half-log increments. If the clinical Cmax for an agent had not been determined, the highest concentration tested was 10 microM.
NCI60 Cell Culture. NCI60 cell lines were obtained from the NCI Developmental Therapeutics Program Tumor Repository. For each lot of cells, the Repository performed Applied Biosystems AmpFLSTR Identifiler testing with PCR amplification to confirm consistency with the published Identifier STR profile for each cell line. Cells were kept in continuous culture for no more than 20 passages. The optimal seeding densities for each of the cell lines at each time point assessed were determined prior to performing the concentration response studies. Briefly, the NCI60 human tumor lines were grown as monolayers in RPMI 1640 medium supplemented with 10% FBS and 2 mmol/L L-glutamine.
An additional 9 lines were from the NCI60 cell line panel including MDA-MB-231 breast carcinoma, MDA-MB-468 breast carcinoma, MCF7 breast carcinoma, Hs578T breast carcinoma, MALME-3M melanoma, SK-MEL-2 melanoma, SK-OV-3 ovarian carcinoma, DU-145 prostate carcinoma, PC-3 prostate carcinoma, all cell lines along with major genetic alterations are listed on Table 2. Pooled donor human umbilical vein endothelial cells (HUVEC, Lonza, cat. CC-2519) and human mesenchymal stem cells (hMSC, Lonza, cat. PT-2501) were purchased from Lonza (Walkersville, MD).
PDMR cell lines were grown in complete medium (DC medium): Dulbecco's modified Eagle's medium (DMEM)/F12 supplemented with 5% fetal bovine serum (FBS), 2 mM L-glutamine, 100 U/mL penicillin and 100 µg/ml streptomycin, 0.4 µg/ml hydrocortisone, 10 ng/ml epidermal growth factor (EGF) recombinant human protein, 24 µg/mL adenine, and 0.1 mg/mL primocin. During culture from frozen stock vials, PDMR cells were cultured in the same medium containing 10 µM Y-27632 (see Table 3). The PDCs were cultured in complete DMEM/F12 media without 10 microM Y-27632 dihydrochloride for at least two passages prior to the screen. The pooled donor HUVEC and hMSC were cultured in endothelial cell growth medium 2 (PromoCell, Heidelberg, Germany, cat. C-22011) and mesenchymal stem cell growth medium 2 (PromoCell, cat. C-28009), respectively. For all experiments, HUVEC and hMSC were used at passages </=5.
[…]
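Also: spheroids exposed to agents for 7 days.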

Cc1nc(NC(=O)N2CCCC2C(N)=O)sc1-c1ccnc(C(C)(C)C(F)(F)F)c1 (stereo not given)
inactive: viability, T/C (compound 0.0316 µM) 97.9% and 110% | viability, T/C (compound 0.1 µM) 95.7% and 102% | viability, T/C (compound 0.316 µM) 90% and 98.9% | viability, T/C (compound 1 µM) 77% and 89.3% | viability, T/C (compound 3.16 µM) 76.2% and 80.2% | viability, T/C (compound 10 µM) 63% and 60.7%
> 10000 nM: IC50 (curve of compound)

Cn1cnc2c(F)c(Nc3ccc(Br)cc3Cl)c(C(=O)NOCCO)cc21
inactive: viability, T/C (compound 0.00949 µM) 94% and 97.4% | viability, T/C (compound 0.03 µM) 86.6% and 73.7% | viability, T/C (compound 0.0949 µM) 85.2% and 77.9% | viability, T/C (compound 0.3 µM) 64.3% and 67.1% | viability, T/C (compound 0.949 µM) 69.9% and 51.7% | viability, T/C (compound 3 µM) 49.4% and 36.6%
> 3000 nM and 1070 nM: IC50 (curve of compound)

Cn1ncc(Cl)c1-c1cc(C(=O)NC(CN)Cc2cccc(F)c2)sc1Cl (stereo not given)
active: viability, T/C (compound 10 µM) 0.31% and 0.21%
1480 nM and 1100 nM: IC50 (curve of compound)
inactive: viability, T/C (compound 0.0316 µM) 98.6% and 91.8% | viability, T/C (compound 0.1 µM) 85.3% and 76% | viability, T/C (compound 0.316 µM) 74.4% and 67.2% | viability, T/C (compound 1 µM) 53.1% and 49% | viability, T/C (compound 3.16 µM) 42.2% and 36.7%

Cn1nccc1Nc1nccc(-c2ccn(C(CO)c3ccc(Cl)c(F)c3)c(=O)c2)n1 (stereo not given)
inactive: viability, T/C (compound 0.0316 µM) 99.2% and 102% | viability, T/C (compound 0.1 µM) 97.9% and 90.4% | viability, T/C (compound 0.316 µM) 98.9% and 92% | viability, T/C (compound 1 µM) 83.2% and 93.5% | viability, T/C (compound 3.16 µM) 64.7% and 54.9% | viability, T/C (compound 10 µM) 34.4% and 29.1%
5450 nM and 3930 nM: IC50 (curve of compound)

Cn1ncnc1[C@H]1c2n[nH]c(=O)c3cc(F)cc(c23)N[C@@H]1c1ccc(F)cc1
inactive: viability, T/C (compound 0.000316 µM) 109% and 99% | viability, T/C (compound 0.001 µM) 106% and 99.6% | viability, T/C (compound 0.00316 µM) 99.2% and 92.1% | viability, T/C (compound 0.01 µM) 74.8% and 65.7% | viability, T/C (compound 0.0316 µM) 47.8% and 39% | viability, T/C (compound 0.1 µM) 26.5% and 21.4%
28 nM and 19.6 nM: IC50 (curve of compound)

Cn1cnc2c(F)c(Nc3ccc(Br)cc3Cl)c(C(=O)NOCCO)cc21 + CC(C)NCC(C(=O)N1CCN(c2ncnc3c2C(C)CC3O)CC1)c1ccc(Cl)cc1
427 nM: IC50 (curve of first compound, second compound 0.1 µM)
61.2 nM: IC50 (curve of first compound, second compound 0.316 µM)
inactive: viability, T/C (second compound 0.1 µM, first compound 0.00949 µM) 91.7% | viability, T/C (second compound 0.1 µM, first compound 0.03 µM) 69.9% | viability, T/C (second compound 0.1 µM, first compound 0.0949 µM) 66.2% | viability, T/C (second compound 0.1 µM, first compound 0.3 µM) 51.7% | viability, T/C (second compound 0.1 µM, first compound 0.949 µM) 46.1% | viability, T/C (second compound 0.1 µM, first compound 3 µM) 34.1% | viability, T/C (second compound 0.316 µM, first compound 0.00949 µM) 60.2% | viability, T/C (second compound 0.316 µM, first compound 0.03 µM) 51.6% | viability, T/C (second compound 0.316 µM, first compound 0.0949 µM) 48% | viability, T/C (second compound 0.316 µM, first compound 0.3 µM) 41.9% | viability, T/C (second compound 0.316 µM, first compound 0.949 µM) 29.7% | viability, T/C (second compound 0.316 µM, first compound 3 µM) 20.6% | viability, T/C (second compound 1 µM, first compound 0.00949 µM) 41.9% | viability, T/C (second compound 1 µM, first compound 0.03 µM) 34.6% | viability, T/C (second compound 1 µM, first compound 0.0949 µM) 32.9% | viability, T/C (second compound 1 µM, first compound 0.3 µM) 28.9% | viability, T/C (second compound 1 µM, first compound 0.949 µM) 20.4% | viability, T/C (second compound 1 µM, first compound 3 µM) 11.5% | viability, T/C (second compound 3.16 µM, first compound 0.00949 µM) 33.8% | viability, T/C (second compound 3.16 µM, first compound 0.03 µM) 27.2% | viability, T/C (second compound 3.16 µM, first compound 0.0949 µM) 21% | viability, T/C (second compound 3.16 µM, first compound 0.3 µM) 21% | viability, T/C (second compound 3.16 µM, first compound 0.949 µM) 13.3% | viability, T/C (second compound 10 µM, first compound 0.00949 µM) 27.1% | viability, T/C (second compound 10 µM, first compound 0.03 µM) 22.4% | viability, T/C (second compound 10 µM, first compound 0.0949 µM) 16.3% | viability, T/C (second compound 10 µM, first compound 0.3 µM) 15.7% | viability, T/C (second compound 10 µM, first compound 0.949 µM) 12.2%
< 9.49 nM: IC50 (curve of first compound, second compound 1 µM) | IC50 (curve of first compound, second compound 3.16 µM) | IC50 (curve of first compound, second compound 10 µM)
active: viability, T/C (second compound 3.16 µM, first compound 3 µM) 7.22% | viability, T/C (second compound 10 µM, first compound 3 µM) 6.89%
